Key:
Assay in all cases: biochemical
Design in all cases: KINOMEscan competition binding panel (Eurofins DiscoverX), single concentration, percent inhibition
Conditions in all cases: read-out: 15 at 1 µM % inhibition
STK33 = STK33 (Homo sapiens, UniProt Q9BYT3)
Summary of the method: (§1)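 Values come from single-concentration (1 µM) profiling in the Eurofins DiscoverX KINOMEscan competition-binding platform, which covers over 400 kinases.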

TLK2 = TLK2 (Homo sapiens, UniProt Q86UE8)
Summary of the method: as §1

EGFR(L858R) = EGFR(L858R) (Homo sapiens, UniProt P00533, L858R)
Summary of the method: as §1

KIT(A829P) = KIT(A829P) (Homo sapiens, UniProt P10721, A829P)
Summary of the method: as §1

ANKK1 = ANKK1 (Homo sapiens, UniProt Q8NFD2)
Summary of the method: as §1

KIT(L576P) = KIT(L576P) (Homo sapiens, UniProt P10721, L576P)
Summary of the method: as §1

[1] = biological target: T1, ABL1(T315I)-nonphosphorylated (Homo sapiens, UniProt P00519, T315I)
T1 construct: nonphosphorylated
Summary of the method: as §1

MAP4K3 = MAP4K3 (Homo sapiens, UniProt Q8IVH8)
Summary of the method: as §1

GRK4 = GRK4 (Homo sapiens, UniProt P32298)
Summary of the method: as §1

FGFR3(G697C) = FGFR3(G697C) (Homo sapiens, UniProt P22607, G697C)
Summary of the method: as §1

SGK3 = SGK3 (Homo sapiens, UniProt Q96BR1)
Summary of the method: as §1

MET(M1250T) = MET(M1250T) (Homo sapiens, UniProt P08581, M1250T)
Summary of the method: as §1

[2] = biological target: T2, ABL1(T315I)-phosphorylated (Homo sapiens, UniProt P00519, T315I)
T2 construct: phosphorylated
Summary of the method: as §1

PIK3C2B = PIK3C2B (Homo sapiens, UniProt O00750)
Summary of the method: as §1

DCAMKL2 = biological target: T3, DCAMKL2 (Homo sapiens, UniProt Q8N568)
T3 construct: gene DCLK2
Summary of the method: as §1

EPHA6 = EPHA6 (Homo sapiens, UniProt Q9UF33)
Summary of the method: as §1

CHEK1 = CHEK1 (Homo sapiens, UniProt O14757)
Summary of the method: as §1

CAMKK1 = CAMKK1 (Homo sapiens, UniProt Q8N5S9)
Summary of the method: as §1

ULK1 = ULK1 (Homo sapiens, UniProt O75385)
Summary of the method: as §1

YANK1 = biological target: T4, YANK1 (Homo sapiens, UniProt Q8WU08)
T4 construct: gene STK32A
Summary of the method: as §1

HUNK = HUNK (Homo sapiens, UniProt P57058)
Summary of the method: as §1

CSNK1A1L = CSNK1A1L (Homo sapiens, UniProt Q8N752)
Summary of the method: as §1

SBK1 = SBK1 (Homo sapiens, UniProt Q52WX2)
Summary of the method: as §1

IKK-alpha = biological target: T5, IKK-alpha (Homo sapiens, UniProt O15111)
T5 construct: gene CHUK
Summary of the method: as §1

Chain of STK33 (Q9BYT3 whole entry): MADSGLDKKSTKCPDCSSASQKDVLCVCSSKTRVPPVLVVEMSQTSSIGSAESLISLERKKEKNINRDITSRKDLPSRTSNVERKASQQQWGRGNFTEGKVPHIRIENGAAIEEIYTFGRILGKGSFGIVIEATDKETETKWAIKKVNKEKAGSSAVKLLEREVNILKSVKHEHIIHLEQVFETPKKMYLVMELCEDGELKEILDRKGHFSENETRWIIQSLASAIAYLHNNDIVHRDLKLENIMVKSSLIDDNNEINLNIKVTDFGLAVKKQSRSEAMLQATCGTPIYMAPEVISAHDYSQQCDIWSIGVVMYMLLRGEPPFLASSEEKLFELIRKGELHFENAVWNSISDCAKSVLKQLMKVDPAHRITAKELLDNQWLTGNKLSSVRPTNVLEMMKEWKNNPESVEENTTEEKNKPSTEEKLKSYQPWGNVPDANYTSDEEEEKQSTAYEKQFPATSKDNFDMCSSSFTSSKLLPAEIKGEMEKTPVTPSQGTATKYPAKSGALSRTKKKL
Chain of CHEK1 (O14757 whole entry): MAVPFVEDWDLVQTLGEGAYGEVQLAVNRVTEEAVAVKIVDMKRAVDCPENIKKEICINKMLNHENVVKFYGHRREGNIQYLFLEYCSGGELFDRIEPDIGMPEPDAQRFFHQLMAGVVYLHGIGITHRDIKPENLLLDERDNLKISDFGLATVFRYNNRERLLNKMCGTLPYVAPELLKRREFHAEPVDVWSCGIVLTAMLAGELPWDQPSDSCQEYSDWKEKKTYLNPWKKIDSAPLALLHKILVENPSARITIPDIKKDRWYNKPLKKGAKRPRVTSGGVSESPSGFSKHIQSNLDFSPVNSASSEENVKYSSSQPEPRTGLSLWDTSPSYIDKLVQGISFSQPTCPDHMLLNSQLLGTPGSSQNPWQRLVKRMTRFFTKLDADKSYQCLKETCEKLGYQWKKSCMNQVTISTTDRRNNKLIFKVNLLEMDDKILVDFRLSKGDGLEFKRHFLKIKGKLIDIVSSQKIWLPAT
Chain of MET(M1250T) (P08581 whole entry M1250T): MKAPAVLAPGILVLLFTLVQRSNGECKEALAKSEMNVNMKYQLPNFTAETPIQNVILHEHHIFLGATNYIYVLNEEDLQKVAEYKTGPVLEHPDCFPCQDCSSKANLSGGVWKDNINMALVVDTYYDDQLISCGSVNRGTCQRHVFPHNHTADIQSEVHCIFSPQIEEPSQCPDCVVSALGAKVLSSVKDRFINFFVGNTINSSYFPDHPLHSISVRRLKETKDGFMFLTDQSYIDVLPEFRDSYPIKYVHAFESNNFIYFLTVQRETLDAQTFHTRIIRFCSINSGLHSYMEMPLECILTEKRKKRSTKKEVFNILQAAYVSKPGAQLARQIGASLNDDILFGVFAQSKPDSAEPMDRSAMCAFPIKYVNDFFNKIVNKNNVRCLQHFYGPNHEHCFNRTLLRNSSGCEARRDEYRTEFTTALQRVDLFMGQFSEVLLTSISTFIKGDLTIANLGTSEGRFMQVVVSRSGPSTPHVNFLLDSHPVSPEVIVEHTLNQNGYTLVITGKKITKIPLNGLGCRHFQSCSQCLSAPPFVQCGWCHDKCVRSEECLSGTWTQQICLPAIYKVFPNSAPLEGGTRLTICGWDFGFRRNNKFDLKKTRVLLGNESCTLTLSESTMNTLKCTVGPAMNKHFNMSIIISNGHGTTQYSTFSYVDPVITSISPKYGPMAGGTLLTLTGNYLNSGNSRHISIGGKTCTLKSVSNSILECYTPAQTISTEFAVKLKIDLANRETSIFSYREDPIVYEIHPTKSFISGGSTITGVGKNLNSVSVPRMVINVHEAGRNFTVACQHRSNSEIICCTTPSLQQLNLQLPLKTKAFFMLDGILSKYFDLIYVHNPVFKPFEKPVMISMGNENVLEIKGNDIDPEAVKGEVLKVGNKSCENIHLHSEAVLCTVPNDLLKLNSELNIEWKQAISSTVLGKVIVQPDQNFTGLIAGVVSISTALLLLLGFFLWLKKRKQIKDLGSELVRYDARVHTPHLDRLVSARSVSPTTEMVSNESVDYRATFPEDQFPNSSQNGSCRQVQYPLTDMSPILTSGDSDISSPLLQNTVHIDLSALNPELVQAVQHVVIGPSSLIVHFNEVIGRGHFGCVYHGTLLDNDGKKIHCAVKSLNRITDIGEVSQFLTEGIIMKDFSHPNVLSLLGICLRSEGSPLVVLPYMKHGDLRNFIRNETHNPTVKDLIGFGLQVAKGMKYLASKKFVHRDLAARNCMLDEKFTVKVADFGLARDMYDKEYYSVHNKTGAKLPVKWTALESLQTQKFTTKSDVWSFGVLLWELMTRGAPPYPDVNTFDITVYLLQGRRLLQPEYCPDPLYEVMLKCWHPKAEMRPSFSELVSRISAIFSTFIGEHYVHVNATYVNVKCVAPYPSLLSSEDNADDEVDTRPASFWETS
Chain of MAP4K3 (Q8IVH8 whole entry): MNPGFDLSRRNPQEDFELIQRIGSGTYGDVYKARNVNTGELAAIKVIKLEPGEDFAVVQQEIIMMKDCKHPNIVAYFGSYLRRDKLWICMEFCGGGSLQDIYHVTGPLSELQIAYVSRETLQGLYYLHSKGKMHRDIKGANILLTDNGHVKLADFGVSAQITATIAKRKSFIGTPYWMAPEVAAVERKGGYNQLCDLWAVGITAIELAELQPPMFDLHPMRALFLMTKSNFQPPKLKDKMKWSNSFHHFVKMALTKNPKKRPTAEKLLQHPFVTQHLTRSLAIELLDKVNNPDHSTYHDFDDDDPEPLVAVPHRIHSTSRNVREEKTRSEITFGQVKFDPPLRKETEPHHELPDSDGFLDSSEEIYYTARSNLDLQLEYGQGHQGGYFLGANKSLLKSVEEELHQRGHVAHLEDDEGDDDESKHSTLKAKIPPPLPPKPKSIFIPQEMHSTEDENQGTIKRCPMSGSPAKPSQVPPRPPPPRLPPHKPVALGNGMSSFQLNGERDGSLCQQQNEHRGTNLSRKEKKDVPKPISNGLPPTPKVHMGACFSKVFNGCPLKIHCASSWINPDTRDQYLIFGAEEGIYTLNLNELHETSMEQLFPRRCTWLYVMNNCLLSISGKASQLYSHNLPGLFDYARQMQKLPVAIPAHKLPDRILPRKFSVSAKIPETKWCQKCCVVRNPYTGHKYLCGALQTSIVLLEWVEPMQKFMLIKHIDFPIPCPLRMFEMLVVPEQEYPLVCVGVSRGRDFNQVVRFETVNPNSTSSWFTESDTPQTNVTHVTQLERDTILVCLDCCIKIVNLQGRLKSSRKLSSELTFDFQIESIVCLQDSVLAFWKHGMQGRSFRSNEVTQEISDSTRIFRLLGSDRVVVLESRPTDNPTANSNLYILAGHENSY
Chain of KIT(A829P) (P10721 whole entry A829P): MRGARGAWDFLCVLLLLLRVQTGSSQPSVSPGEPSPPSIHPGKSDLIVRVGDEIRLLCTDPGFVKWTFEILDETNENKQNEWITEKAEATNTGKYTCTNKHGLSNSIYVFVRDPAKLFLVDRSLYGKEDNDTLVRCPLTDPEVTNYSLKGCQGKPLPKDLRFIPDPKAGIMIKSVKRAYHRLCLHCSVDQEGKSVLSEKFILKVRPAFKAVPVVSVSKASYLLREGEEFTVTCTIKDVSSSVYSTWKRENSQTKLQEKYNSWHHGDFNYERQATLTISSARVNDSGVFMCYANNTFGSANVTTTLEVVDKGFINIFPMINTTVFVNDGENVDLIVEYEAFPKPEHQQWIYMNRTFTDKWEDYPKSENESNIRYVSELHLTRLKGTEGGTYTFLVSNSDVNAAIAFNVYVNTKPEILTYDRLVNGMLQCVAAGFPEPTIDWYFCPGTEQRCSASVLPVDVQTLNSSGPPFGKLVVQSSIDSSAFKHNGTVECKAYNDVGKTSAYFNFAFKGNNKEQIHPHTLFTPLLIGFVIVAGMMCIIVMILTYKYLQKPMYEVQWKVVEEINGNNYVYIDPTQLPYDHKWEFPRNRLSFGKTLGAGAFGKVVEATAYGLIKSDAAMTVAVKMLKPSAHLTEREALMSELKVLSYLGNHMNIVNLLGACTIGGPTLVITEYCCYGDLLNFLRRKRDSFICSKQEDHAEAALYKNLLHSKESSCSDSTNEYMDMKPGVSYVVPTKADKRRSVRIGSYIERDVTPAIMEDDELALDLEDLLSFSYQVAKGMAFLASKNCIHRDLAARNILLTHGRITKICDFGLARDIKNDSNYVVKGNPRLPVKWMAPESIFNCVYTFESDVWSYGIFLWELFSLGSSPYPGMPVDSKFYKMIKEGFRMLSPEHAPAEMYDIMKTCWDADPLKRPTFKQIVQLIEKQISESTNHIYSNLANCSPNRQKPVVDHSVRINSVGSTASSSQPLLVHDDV
Chain of SGK3 (Q96BR1 whole entry): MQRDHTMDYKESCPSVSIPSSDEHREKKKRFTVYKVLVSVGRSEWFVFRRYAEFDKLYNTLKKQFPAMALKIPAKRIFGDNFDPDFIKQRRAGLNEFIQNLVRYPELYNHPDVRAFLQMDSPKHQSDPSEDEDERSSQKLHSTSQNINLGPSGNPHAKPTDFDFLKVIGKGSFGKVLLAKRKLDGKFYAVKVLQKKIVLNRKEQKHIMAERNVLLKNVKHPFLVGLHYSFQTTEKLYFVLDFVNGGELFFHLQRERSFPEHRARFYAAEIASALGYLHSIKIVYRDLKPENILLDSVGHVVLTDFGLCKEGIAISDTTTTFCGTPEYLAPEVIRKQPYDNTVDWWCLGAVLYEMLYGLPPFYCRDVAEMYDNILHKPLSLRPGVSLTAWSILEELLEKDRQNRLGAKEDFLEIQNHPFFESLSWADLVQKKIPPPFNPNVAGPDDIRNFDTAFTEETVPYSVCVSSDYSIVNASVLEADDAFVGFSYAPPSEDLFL
Chain of KIT(L576P) (P10721 whole entry L576P): as the sequence (P10721 whole entry A829P) above, with L576P, P829A counted along it

For `CNS(=O)(=O)c1ccc(N(C)C)c(Nc2nc(C)nc3cc(OC)c(OC)cc23)c1` [compound 15, 3-((6,7-dimethoxy-2-methylquinazolin-4-yl)amino)-4-(dimethylamino)-N-methylbenzenesulfonamide], the inhibition at 1 µM (STK33) was 0%, the inhibition at 1 µM (TLK2) was 0% and the inhibition at 1 µM (EGFR(L858R)) was 4%. For the same compound, the inhibition at 1 µM (KIT(A829P)) was 42%, the inhibition at 1 µM (ANKK1) was 24% and the inhibition at 1 µM (KIT(L576P)) was 0%. For the same compound, the inhibition at 1 µM [1] was 9%, the inhibition at 1 µM (MAP4K3) was 0% and the inhibition at 1 µM (GRK4) was 8%. The inhibition at 1 µM (FGFR3(G697C)) was 0%, the inhibition at 1 µM (SGK3) was 19% and the inhibition at 1 µM (MET(M1250T)) was 0%. For the same compound, the inhibition at 1 µM [2] was 0%, the inhibition at 1 µM (PIK3C2B) was 71% and the inhibition at 1 µM (DCAMKL2) was 0%. The inhibition at 1 µM (EPHA6) was 0%, the inhibition at 1 µM (CHEK1) was 1% and the inhibition at 1 µM (CAMKK1) was 2%. It also gave an inhibition at 1 µM (ULK1) of 31%, an inhibition at 1 µM (YANK1) of 0% and an inhibition at 1 µM (HUNK) of 0%. The inhibition at 1 µM (CSNK1A1L) was 0%, the inhibition at 1 µM (SBK1) was 44% and the inhibition at 1 µM (IKK-alpha) was 33%.
